Data taken from publication PMC5656713 (Advances in Therapy, 2017).
Where two headings read alike, the source gives them in different places.

Tests used:
[1] = male, human, in vivo
clinical [2] = conditions: male, human, in vivo
plasma ACTH = test: Fasting plasma ACTH during mifepristone alone and plus ketoconazole; assay type: in vivo, human; conditions: day 13, predose, after mifepristone 600 mg alone
glucocorticoid receptor = conditions: cited from earlier work
clinical [3] = conditions: male, human, in vivo, 600 mg
Safety and tolerability = assay type: in vivo, human
serum cortisol = test: Fasting serum cortisol during mifepristone alone and plus ketoconazole; assay type: in vivo, human; conditions: day 13, predose, after mifepristone 600 mg alone
[4] = cited from earlier work
[5] = with concomitant ketoconazole 200 mg twice daily vs mifepristone 600 mg alone

Mean predose trough concentrations [1]	Tmax (clinical [2]; 200 mg)	AUC(0-t) (clinical [2]; AUC (AUC0–12) GLSM)	half-life (clinical [3])	increase in systemic exposure based on GMR, AUC0–24 [5]	SMILES	Mean ACTH (plasma ACTH)	affinity to the glucocorticoid receptor compared with 100% for mifepristone (glucocorticoid receptor)	subjects with at least one treatment-emergent AE (Safety and tolerability; coadministration of mifepristone and ketoconazole (period 2), 8/14)	subjects with at least one treatment-emergent AE (Safety and tolerability; mifepristone alone (period 1), 9/16)	serious AEs (Safety and tolerability; whole study, mifepristone alone and plus ketoconazole)	Mean serum cortisol (serum cortisol)	half-life [4]
1353.07 to 1615.64 ng/mL	3 h	37700 ng·h/mL			CC(=O)N1CCN(c2ccc(OCC3COC(Cn4ccnc4)(c4ccc(Cl)cc4Cl)O3)cc2)CC1 (stereo not drawn) [Ketoconazole]							
			> 2.67 days	38%	CC#C[C@]1(O)CC[C@H]2[C@@H]3CCC4=CC(=O)CCC4=C3[C@@H](c3ccc(N(C)C)cc3)C[C@@]21C [Mifepristone]	148 pg/mL	100%	57.1%	56.3%	No serious AEs	41.9 µg/dL	~ 85 h
